Measured values: patent US20100190968A1, “OLEANANE TRITERPENE SAPONIN COMPOUNDS WHICH ARE EFFECTIVE ON TREATMENT OF DEMENTIA AND MILD COGNITIVE IMPAIRMENT (MCI) AND IMPROVEMENT OF COGNITIVE FUNCTION” (priority 2006, published 2010)

System: mice
Test: Passive avoidance test (scopolamine-induced memory decline)
Format: in vivo, mouse
Conditions: scopolamine 1 mg/kg; for Retention time: measured up to 300 seconds
Protocol: Passive avoidance test was performed to identify the memory improvement effect of the above 8 oleanolic acid saponin or hederagenin saponin substances in the body. Also, oleanolic acid and hederagenin, aglycons of the saponin compounds, were included in the test. A shuttle box measuring 50 cm×15 cm×40 cm was used. The box was divided into two compartments by a guillotine door. One compartment was brightly illuminated and the other was covered by black cloth. A mouse was placed in the illuminated compartment. Then, when the guillotine door was open, the mouse moved into the dark compartment within 20 seconds because it prefers darkness. The guillotine door was closed automatically as soon as the mouse entered the dark compartment. In this way, the latency time, or the time that elapsed until a mouse left the illuminated compartment and entered the dark compartment, was determined. On the first day, this training trial was performed until all the mice entered the dark compartment within 20 seconds. On the following day, the trained mice were placed in the illuminated compartment, one at a time, and were allowed to move into the dark compartment. When the mice entered the dark compartment, a foot-shock (0.8 mA, 3 seconds) was delivered through the electronic grid equipped on the floor of the dark compartment. 24 hours after this acquisition trial, the mice were placed in the illuminated compartment and were allowed to move into the dark compartment. Then, normal mice hesitated to move into the dark compartment remembering the shock of the day before. The time elapsed until the mice entered the dark compartment was measured up to 300 seconds. Retention time was measured to evaluate the memory improvement effect. Neither scopolamine nor the drug was administered to the control group. Scopolamine (1 mg/kg), which is known to decline memory function by inhibiting the transfer of neurotransmitters, was administered. An hour later, saponin (30 mg/kg) and aglycon (30 mg/kg), […] (donepezil, 1 mg/kg, positive control) and water (negative control) were administered.

[1] = saponin or aglycon 30 mg/kg administered once orally 1 hour later, 24 hours after acquisition trial
[2] = saponin or aglycon 30 mg/kg 1 hour later

With “3-O-β-D-Xylopyranosyl(1→2)-β-D-galactopyranosyl(1→3)-β-D-glucolopyranosyloleanolic acid [Elatoside A]” the “Retention time” value [1] was 166.0 ± 24.8 s.

“3-O-β-D-Xylopyranosyl(1→2)-β-D-galactopyranosyl(1→3)-β-D-glucolopyranosyloleanolic acid-28-O-β-D-glucopyranosyl ester [Elatoside C]” was tested, and the “Retention time” value [1] was 160.1 ± 15.6 s.

For COc1cc2c(cc1OC)C(=O)C(CC1CCN(Cc3ccccc3)CC1)C2 (centres unmarked) [Aricept, donepezil, reference compound], the “times longer retention time than the negative control group (water)” value (Aricept 1 mg/kg orally 1 hour later) was 1.6 times and the “Retention time” value (Aricept (donepezil) 1 mg/kg orally 1 hour later, positive control) was 98.5 ± 10.6 s.

For C[C@@H]1O[C@@H](O[C@H]2[C@H](O[C@H]3CC[C@]4(C)[C@H]5CC=C6[C@@H]7CC(C)(C)CC[C@]7(C(=O)O)CC[C@@]6(C)[C@]5(C)CC[C@H]4C3(C)C)OC[C@H](O)[C@@H]2O)[C@H](O)[C@H](O)[C@H]1O [Eleutheroside K, 3-O-α-L-Rhamnopyranosyl(1→2)-α-L-arabinopyranosyloleanolic acid], the “Retention time” value [1] was 182.6 ± 15.9 s.

For CC1OC(OC2C(CO)OC(OCC3OC(OC(=O)C45CCC(C)(C)CC4C4=CCC6C7(C)CCC(OC8OCC(OC9OC(CO)C(O)C(O)C9OC9OC(C)C(O)C(O)C9O)C(O)C8O)C(C)(C)C7CCC6(C)C4(C)CC5)C(O)C(O)C3O)C(O)C2O)C(O)C(O)C1O [Hederacolchiside E, 3-O-α-L-Rhamnopyranosyl(1→2)-β-D-glucopyranosyl(1→4)-α-L-arabinopyranosyloleanolic acid-28-O-α-L-rhamnopyranosyl(1→4)-β-D-glucopyranosyl(1→6)-β-D-glucopyranosyl ester], the “Retention time” value [1] was 155.7 ± 31.2 s.

With CC1(C)CC[C@]2(C(=O)O)CC[C@]3(C)C(=CC[C@@H]4[C@@]5(C)CC[C@H](O)[C@@](C)(CO)[C@@H]5CC[C@]43C)[C@@H]2C1 [Hederagenin, hederagenin, reference compound] the “times longer retention time than the negative control group (water)” value [2] was 2.3 times and the “Retention time” value [1] was 142.8 ± 32.6 s.

In the case of C[C@@H]1O[C@@H](O[C@H]2[C@H](O[C@H]3CC[C@]4(C)[C@H]5CC=C6[C@@H]7CC(C)(C)CC[C@]7(C(=O)O[C@@H]7O[C@H](CO[C@@H]8O[C@H](CO)[C@@H](O[C@@H]9O[C@@H](C)[C@H](O)[C@@H](O)[C@H]9O)[C@H](O)[C@H]8O)[C@@H](O)[C@H](O)[C@H]7O)CC[C@@]6(C)[C@]5(C)CC[C@H]4C3(C)C)OC[C@H](O)[C@@H]2O)[C@H](O)[C@H](O)[C@H]1O [Hederasaponin B, 3-O-α-L-Rhamnopyranosyl(1→2)-α-L-arabinopyranosyloleanolic acid-28-O-α-L-rhamnopyranosyl(1→4)-β-D-glucopyranosyl(1→6)-β-D-glucopyranosyl ester], the “Retention time” value [1] is reported as 172.3 ± 29.1 s.

C[C@@H]1O[C@@H](O[C@H]2[C@H](O[C@H]3CC[C@@]4(C)[C@@H](CC[C@]5(C)[C@@H]4CC=C4[C@@H]6CC(C)(C)CC[C@]6(C(=O)O[C@@H]6O[C@H](CO[C@@H]7O[C@H](CO)[C@@H](O[C@@H]8O[C@@H](C)[C@H](O)[C@@H](O)[C@H]8O)[C@H](O)[C@H]7O)[C@@H](O)[C@H](O)[C@H]6O)CC[C@]45C)[C@]3(C)CO)OC[C@H](O)[C@@H]2O)[C@H](O)[C@H](O)[C@H]1O [Kalopanaxsaponin B, 3-O-α-L-Rhamnopyranosyl(1→2)-α-L-arabinopyranosylhederagenin-28-O-α-L-rhamnopyranosyl(1→4)-β-D-glucopyranosyl(1→6)-β-D-glucopyranosyl ester] was tested, and the “Retention time” value [1] was 170.5 ± 24.6 s.

With C[C@@H]1O[C@@H](O[C@H]2[C@H](OC[C@H]3O[C@@H](OC(=O)[C@]45CCC(C)(C)C[C@H]4C4=CC[C@@H]6[C@@]7(C)CC[C@H](O[C@@H]8OC[C@H](O)[C@H](O)[C@H]8O)[C@@](C)(CO)[C@@H]7CC[C@@]6(C)[C@]4(C)CC5)[C@H](O)[C@@H](O)[C@@H]3O)OC[C@@H](O)[C@@H]2O)[C@H](O)[C@H](O)[C@H]1O [Loniceroside A, 3-O-α-L-Arabinopyranosylhederagenin-28-O-α-L-rhamnopyranosyl(1→2)-β-D-xylopyranosyl(1→6)-β-D-glucopyranosyl ester] the “Retention time” value [1] was 175.3 ± 21.1 s.

CC1OC(OC2C(OCC3OC(OC(=O)C45CCC(C)(C)CC4C4=CCC6C7(C)CCC(OC8OCC(O)C(O)C8OC8OC(C)C(O)C(O)C8O)C(C)(CO)C7CCC6(C)C4(C)CC5)C(O)C(O)C3O)OCC(O)C2O)C(O)C(O)C1O [Loniceroside B, 3-O-α-L-Rhamnopyranosyl(1→2)-α-L-arabinopyranosylhederagenin-28-O-α-L-rhamnopyranosyl(1→2)-β-D-xylopyranosyl(1→6)-β-D-glucopyranosyl ester] was tested, and the “Retention time” value [1] was 169.7 ± 25.4 s.

With CC1(C)CC[C@]2(C(=O)O)CC[C@]3(C)C(=CC[C@@H]4[C@@]5(C)CC[C@H](O)C(C)(C)[C@@H]5CC[C@]43C)[C@@H]2C1 [Oleanolic acid, oleanolic acid, reference compound] the “times longer retention time than the negative control group (water)” value [2] was 2.4 times and the “Retention time” value [1] was 149.4 ± 19.7 s.
